Source: US20180049998A1, “Naphthoquinone Compounds and Methods for Preparing the Same” (priority 2016, published 2018)

melting point: 96 °C
SMILES: CCOC(=O)C(C)(CCC1=C(C)C(=O)c2ccccc2C1=O)C(=O)OCC
